Data published in ChEMBL document CHEMBL1156829 (Proc Natl Acad Sci U S A, 2008).

Columns and labels:
Plasmodium falciparum [1] = assay: NOVARTIS: Inhibition of Plasmodium falciparum 3D7 (drug-susceptible) proliferation in erythrocyte-based infection assay; format: functional, organism-based; details: Plasmodium falciparum, 3D7
[2] = NOVARTIS: Cytotoxicity against human hepatocellular carcinoma cell line (Huh7); format: toxicity, cell-based, Huh-7; details: Huh7 cells (hepatocellular carcinoma cell line)
Plasmodium falciparum [3] = assay: NOVARTIS: Inhibition of Plasmodium falciparum W2 (drug-resistant) proliferation in erythrocyte-based infection assay; format: functional, organism-based; details: Plasmodium falciparum, W2; read-out: EC50

For CCc1nnc2sc(-c3ccc(NC(=O)c4ccc(Br)o4)cc3)nn12, the EC50 (Plasmodium falciparum [1]) was 5050 nM, the CC50 [2] was greater than 100000 nM and the EC50 (Plasmodium falciparum [3]) was 833 nM.
For O=C(Nc1cccc(-c2nc3ccccc3[nH]2)c1)c1cc(=O)c2ccccc2o1, the EC50 (Plasmodium falciparum [1]) was 397 nM, the CC50 [2] was greater than 100000 nM and the EC50 (Plasmodium falciparum [3]) was 786 nM.
For CCOC(=O)CCC(=O)Oc1ccccc1-c1nc2cc(C)ccn2c1NC(C)(C)CC(C)(C)C, the EC50 (Plasmodium falciparum [1]) was 658 nM, the CC50 [2] was greater than 10000 nM and the EC50 (Plasmodium falciparum [3]) was 79.5 nM.
Compound CCCOc1ccc(C(=O)Nc2cccc(-c3nc4ncccc4o3)c2)cc1 has an EC50 (Plasmodium falciparum [1]) of 415 nM, a CC50 [2] greater than 10000 nM and an EC50 (Plasmodium falciparum [3]) greater than 1750 nM.
With C/C=C/[P+](c1ccccc1)(c1ccccc1)c1ccccc1 the EC50 (Plasmodium falciparum [1]) was 52.8 nM, the CC50 [2] was 2810 nM and the EC50 (Plasmodium falciparum [3]) was 130 nM.
In the case of CCOC(=O)c1c(NC(=O)CSc2nnc(CNC(=O)c3cccc(C)c3)n2-c2cccc(C)c2)sc2c1CCC2, the EC50 (Plasmodium falciparum [1]) is reported as greater than 1600 nM, the CC50 [2] is reported as greater than 10000 nM and the EC50 (Plasmodium falciparum [3]) is reported as greater than 1190 nM.
CC1=CC[C@@H](/C(C)=C/c2csc(C)n2)OC(=O)C[C@H](O)C(C)(C)C(=O)[C@H](C)[C@@H](O)[C@@H](C)CCC1 gave an EC50 (Plasmodium falciparum [1]) of 85.4 nM, a CC50 [2] of 6.21 nM and an EC50 (Plasmodium falciparum [3]) of 25.8 nM.
In the case of CCCN(CCC)CCNC(=O)c1cc2c(-c3ccc(Cl)cc3)nn(C)c2s1, the EC50 (Plasmodium falciparum [1]) is reported as 253 nM, the CC50 [2] is reported as 45800 nM and the EC50 (Plasmodium falciparum [3]) is reported as 703 nM.
With CC(=O)N(C1=C(N2CCOCC2)C(=O)c2ccccc2C1=O)c1ccc(Br)cc1 the EC50 (Plasmodium falciparum [1]) was 239 nM, the CC50 [2] was 19100 nM and the EC50 (Plasmodium falciparum [3]) was 200 nM.
CNc1nc(Cl)nc(Nc2ccccc2)n1 gave an EC50 (Plasmodium falciparum [1]) greater than 482 nM, a CC50 [2] greater than 10000 nM and an EC50 (Plasmodium falciparum [3]) of 1650 nM.
COc1cccc(C2CC3(CC(C)(C)NC(=S)N3)Oc3cc(OC(C)=O)c(Cl)cc32)c1 (centres undefined) gave an EC50 (Plasmodium falciparum [1]) greater than 1300 nM, a CC50 [2] greater than 10000 nM and an EC50 (Plasmodium falciparum [3]) greater than 995 nM.
Compound Sc1nc2ccc3nsnc3c2[nH]1 has an EC50 (Plasmodium falciparum [1]) of 713 nM, a CC50 [2] greater than 10000 nM and an EC50 (Plasmodium falciparum [3]) of 537 nM.
With Oc1c(CN2CCCCC2)ccc2ccccc12 the EC50 (Plasmodium falciparum [1]) was 5630 nM, the CC50 [2] was greater than 100000 nM and the EC50 (Plasmodium falciparum [3]) was 727 nM.
In the case of Clc1ccc(-c2c[n+](Cc3ccccc3Cl)c3n2CCC3)cc1, the EC50 (Plasmodium falciparum [1]) is reported as 784 nM, the CC50 [2] is reported as greater than 87000 nM and the EC50 (Plasmodium falciparum [3]) is reported as 384 nM.
Cc1ccc(Nc2nc3nonc3nc2N(C)C)cc1Cl showed an EC50 (Plasmodium falciparum [1]) greater than 1460 nM, a CC50 [2] greater than 10000 nM and an EC50 (Plasmodium falciparum [3]) of 1610 nM.
Work on Cc1ccc(CN2CCC(O)(c3ccc4oc(C(=O)NCCc5cccc(F)c5)cc4c3)CC2)cc1 yielded an EC50 (Plasmodium falciparum [1]) of 4160 nM, a CC50 [2] of 43500 nM and an EC50 (Plasmodium falciparum [3]) of 3010 nM.
Work on CCOC(=O)c1c(CC)nc(-c2ccccc2)nc1C(=O)N1CCC(C)CC1 yielded an EC50 (Plasmodium falciparum [1]) greater than 1250 nM, a CC50 [2] of 4060 nM and an EC50 (Plasmodium falciparum [3]) of less than 13 nM.
Work on COc1ccc(-c2cc(C(=O)NCc3cccnc3)no2)cc1OC yielded an EC50 (Plasmodium falciparum [1]) greater than 1290 nM, a CC50 [2] greater than 10000 nM and an EC50 (Plasmodium falciparum [3]) of 1700 nM.
Cc1ccc(S(=O)(=O)Oc2ccc(C=NN=C(N)N)cc2)cc1 showed an EC50 (Plasmodium falciparum [1]) of 155 nM, a CC50 [2] of 14100 nM and an EC50 (Plasmodium falciparum [3]) of 631 nM.
CCOc1cc(-c2nc3c(=O)n(C)c(=O)nc-3n(C)n2)ccc1OC(C)C showed an EC50 (Plasmodium falciparum [1]) of 333 nM, a CC50 [2] greater than 10000 nM and an EC50 (Plasmodium falciparum [3]) of 29.3 nM.
O=C(O[Si](c1ccccc1)(c1ccccc1)c1ccccc1)c1ccccc1 showed an EC50 (Plasmodium falciparum [1]) greater than 1250 nM, a CC50 [2] greater than 10000 nM and an EC50 (Plasmodium falciparum [3]) of 1320 nM.
With COc1cc2c(cc1OC)-c1cc3ccc(OC)c(OC)c3c[n+]1CC2 [PALMATINE CHLORIDE] the EC50 (Plasmodium falciparum [1]) was 697 nM, the CC50 [2] was greater than 100000 nM and the EC50 (Plasmodium falciparum [3]) was 766 nM.
For CCCCCN(C(=O)c1ccc(C)cc1)C(CC)c1nc2ccccc2c(=O)n1-c1ccccc1OC (centres undefined), the EC50 (Plasmodium falciparum [1]) was 893 nM, the CC50 [2] was greater than 10000 nM and the EC50 (Plasmodium falciparum [3]) was 1070 nM.
Cc1ccc2ccc(C(Nc3ccccn3)c3ccc(Br)cc3)c(O)c2n1 (centres undefined) showed an EC50 (Plasmodium falciparum [1]) of 1220 nM, a CC50 [2] greater than 100000 nM and an EC50 (Plasmodium falciparum [3]) of 800 nM.
In the case of CNC(=O)c1ccc(NC(=O)Nc2ccc(C3=NCCCN3)cc2)cc1NC(=O)Nc1ccc(C2=NCCCN2)cc1, the EC50 (Plasmodium falciparum [1]) is reported as 126 nM, the CC50 [2] is reported as greater than 10000 nM and the EC50 (Plasmodium falciparum [3]) is reported as 78.3 nM.
In the case of COc1cccc(/C=C2\SC(=Nc3ccccc3)NC2=O)c1OC, the EC50 (Plasmodium falciparum [1]) is reported as 521 nM, the CC50 [2] is reported as greater than 100000 nM and the EC50 (Plasmodium falciparum [3]) is reported as 1100 nM.
With CC(=O)CSc1nnc(-c2ccncc2)n1C the EC50 (Plasmodium falciparum [1]) was greater than 1250 nM, the CC50 [2] was greater than 12700 nM and the EC50 (Plasmodium falciparum [3]) was 310 nM.
With CCCCNc1cc(C)nc(NCc2ccccc2)n1 the EC50 (Plasmodium falciparum [1]) was 944 nM, the CC50 [2] was greater than 10000 nM and the EC50 (Plasmodium falciparum [3]) was 1020 nM.
